Experimental findings from patent US4200636A, “3-Amino-17a-aza-D-homoandrostane compounds, and pharmaceutical compositions containing them” (priority 1977, dated 1980) are described below.

One test has as its system tibialis muscle. The test is described as follows: Neuromuscular block in anesthetized cats (electrically stimulated peroneal nerve, tibialis muscle contractions). The note with it: for Activity period: i.v., time between first appearance of the effect and restoration of normal muscle contractions; for ED50: i.v. dose reducing the contractions to half of their original values, 4 doses. The class given is in vivo. As to the method:
The potency and the activity period of the compounds according to the invention were tested on anesthesized cats and alert dogs. On anesthesized cats the peroneal nerve was electrically stimulated and the corresponding contractions of the tibialis muscle was registrated. The i.v. doses of the various test compounds which reduced the contractions to half of their original values were determined (ED50 -values). In the attached Table I the ED50 -values and the corresponding activity periods are shown, the term "activity period" is intended to mean the time interval between the first appearance of the effect of the test compounds and the restoration of the normal muscle contractions. For each test compound 4 doses were used and for each dose 6 animals were examined. As a reference compound suxamethonium was used, which is a known compound widely used as a neuromuscular blocking agent having a short activity period.

The test system of a further test is muscle relaxation. As to the kind of experiment: Total muscle relaxation in alert dogs. The class given is in vivo. The note with it: for Activity period: time between administration and disappearance of the activity; for Time until the max. effect: time between administration and total muscle relaxation. As to the method:
To alert dogs (6 animals for each test compound) four doses causing a total muscle relaxation were administered and the time between the administration and the total muscle relaxation as well as the time between the administration and the disappearance of the activity was measured.

Where [1] appears, read: Dose 100 (unit not printed), listed as 3 β-Pyrrolidino-17a-methyl-17a-aza-D-homo-5 α-androstane-di-methobromide.
The mark [2] stands for this setting: Dose 100 (unit not printed), listed as 3 β-Pyrrolidino-17a-methyl-17a-aza-D-homo-5α -androstane-di-methoiodide.

Like-named read-outs stand apart in the source and are kept apart here.

With `C[C@]12CC[C@@H]([N+]3(C)CCCC3)C[C@@H]1CC[C@@H]1[C@@H]2CC[C@@]2(C)[C@H]1CCC[N+]2(C)C` [3 α-Pyrrolidino-17a-methyl-17a-aza-D-homo-5α-androstane-di-m] [3α-Pyrrolidino-17a-methyl-17a-aza-D-homo-5α-androstane dimethobromide], the Activity period in the test on tibialis muscle stood at 11.2 min. In the test with muscle relaxation (Dose 100 (unit not given)), the Activity period amounted to 8.6 min and the “Time until the max. effect” value amounted to 18 s.
In general, ED50 refers to the midpoint of the dose-response relation. Turning to `C[C@]12CC[C@@H]([N+]3(C)CCCC3)C[C@@H]1CC[C@@H]1[C@@H]2CC[C@@]2(C)[C@H]1CCC[N+]2(C)C` [3 αPyrrolidino-17a-methyl-17a-aza-D-homo-5α-androstane-di-me] [3α-Pyrrolidino-17a-methyl-17a-aza-D-homo-5α-androstane dimethoiodide], in the test on tibialis muscle, the median effective dose (ED50) is 0.12 mg/kg and the Activity period was 12.4 min. In the test with muscle relaxation (Dose 100 (unit not given)), the Activity period is listed as 8.5 min and the “Time until the max. effect” value came out at 19 s.
On to `C[C@]12CC[C@H]([N+]3(C)CCCC3)C[C@@H]1CC[C@@H]1[C@@H]2CC[C@@]2(C)[C@H]1CCC[N+]2(C)C` [3 β-Pyrrolidino-17a-methyl-17a-aza-D-homo-5α-androstane-di-m] [3β-Pyrrolidino-17a-methyl-17a-aza-D-homo-5α-androstane dimethobromide], for which the Activity period with tibialis muscle is reported as 13.0 min. Also, in the test on muscle relaxation (setting [1]), the Activity period came out at 9.5 min and the “Time until the max. effect” value was determined as 21 s.
Regarding `C[C@]12CC[C@H]([N+]3(C)CCCC3)C[C@@H]1CC[C@@H]1[C@@H]2CC[C@@]2(C)[C@H]1CCC[N+]2(C)C` [3 β-Pyrrolidino-17a-methyl-17a-aza-D-homo-5α-androstane-di-m] [3β-Pyrrolidino-17a-methyl-17a-aza-D-homo-5α-androstane dimethoiodide], in the test on tibialis muscle, the ED50 was 0.105 mg/kg and the Activity period is reported as 12.6 min. In addition, in the test on muscle relaxation (setting [2]), the Activity period is recorded as 8.8 min and the “Time until the max. effect” value turned out to be 17 s.
Consider `C[C@]12CC[C@@H]([N+]3(C)CCCC3)C[C@@H]1CC[C@@H]1[C@@H]2CC[C@@]2(C)[C@H]1CCC[N+]2(C)C` [3α-Pyrrolidino-17a-methyl-17a-aza-D-homo-5α-androstane dimethobromide], for which it took a dose of 0.1 mg/kg to reach the 50% effect level in the test with tibialis muscle (Felis catus, iv) (ED50).
`C[C@]12CC[C@H]([N+]3(C)CCCC3)C[C@@H]1CC[C@@H]1[C@@H]2CC[C@@]2(C)[C@H]1CCC[N+]2(C)C` [3β-Pyrrolidino-17a-methyl-17a-aza-D-homo-5α-androstane dimethobromide]: the 50% effective dose (ED50) with tibialis muscle (Felis catus, iv) stood at 0.125 mg/kg.
For the molecule `C[N+](C)(C)CCOC(=O)CCC(=O)OCC[N+](C)(C)C` [Suxamethonium, reference compound], the median effective dose (ED50) in the test with tibialis muscle (Felis catus, iv, read-out: ED50) came out at 0.06 mg/kg. This molecule also gave an Activity period in the test with tibialis muscle of 11.0 min. For the same molecule, in the test on muscle relaxation (Dose 100 (unit not given)), the Activity period is reported as 10.3 min and the “Time until the max. effect” value turned out to be 16 s.
